Earlier results on two compounds are cited in patent publication US20060127478A1, “Oral dosage formulation” (priority 2003, published 2006).

Like-named read-outs stand apart in the source and are kept apart here.

For data set [1] the following is noted: in vivo.
Another data set concerns gastric secretion. To be noted: following oral administration.
The conditions of data set [2]: Taha et al., NEJM 1996.

Turning to `CCCCC(C)(O)C/C=C/[C@H]1[C@H](O)CC(=O)[C@@H]1CCCCCCC(=O)OC` (mixture of isomers) [Misoprostol], the “incidence of adverse effects (abdominal pain, diarrhea, nausea, flatulence)” value in data set [1] was “high incidence”.
`NC(N)=Nc1nc(CSCCC(N)=NS(N)(=O)=O)cs1` [Famotidine]: the “nocturnal intra-gastric pH, mean value” is recorded as 5.0 (nocturnal dose of 20 mg) and 6.4 (nocturnal dose of 40 mg). The “basal daytime inter-digestive pH” value (three and eight hours following administration after breakfast of 20 or 40 mg) is “about 5”. Further, the “time at which basal, nocturnal, food and pentagastrin stimulated gastric secretion is inhibited” value in the data set on gastric secretion was “one”. For the same compound, the “time to maximum effect on gastric secretion” value with gastric secretion (maximum effect dose dependent) is reported as “one to three”. In addition, in data set [2], the “frequency of gastric and duodenal ulcers associated with non-selective NSAIDs (diclofenac, ibuprofen, naproxen, ketoprofen)” value is listed as “reduce the frequency”.
